Assay results taken from patent US20260373101A1, “POLYAMINATED FATTY ACIDS FOR USE AS POTENTIATORS OF ANTIBACTERIAL ACTIVITY” (priority 2023, published 2026).
Values after ≈ are worked out from the molar mass of the structure shown.

How the values were obtained:
Assay type in all cases: cell-based
P. aeruginosa PA263 = test: Potentiation of known antibiotics (MIC of antibiotic alone or with PAFA); conditions: for MIC: Pseudomonas aeruginosa, PA263, 24 h, 24 h
Experimental: (§1) 100 μl of a liquid culture medium is deposited in each well of a 96-well microplate, and then inoculated with the bacterial suspension of example 2.1 prepared for the positive control. The volume needed to inoculate is calculated for an OD of 0.01 which corresponds to approximately 5,106 bacteria in each well. In this plate, the first row corresponds to a negative control (200 μl of sterile culture medium in each well), the second row to a positive control (100 μl of sterile culture medium with 100 μl of the bacterial suspension), the third row contains 192 μl of culture medium and 8 μl of an antibiotic solution (10 mg/ml) to be tested in each well. Subsequently, a cascade dilution is performed from this line. Next, 10 μl of a fatty acid solution (10 μM final concentration) is added to each well of the lines. Then, 90 μl of bacterial suspension is added to lines 3 to 8. The MIC of the antibiotic tested is determined after 24 hours of incubation at 37 °C in a humid atmosphere.
(§2) The table 3 below reports the antibacterial activity (MIC in μg/mL) of a combination of some polyaminated fatty acids prepared in example 1 with various antibacterial drugs: doxycycline (DOX), tetracycline (TET), oxytetracycline (OXY) and minocycline (MINO), against various bacterial strains of P. aeruginosa (PA01, PA0509, and PA263), and of E. coli (AG-100 and AG-100A).

P. aeruginosa PA01 = test: as above; conditions: Pseudomonas aeruginosa, PA01, 24 h
Experimental: as §1, §2

E. coli AG-100 = test: as above; conditions: Escherichia coli, AG100, 24 h
Experimental: as §1, §2

P. aeruginosa PA0509 = test: as above; conditions: Pseudomonas aeruginosa, PA0509, 24 h
Experimental: as §1, §2

E. coli AG-100A = test: as above; conditions: Escherichia coli, AG100A, 24 h
Experimental: as §1, §2

E. coli ATCC28922 = test: Intrinsic antibacterial activity, standard microdilution (CLSI); conditions: Escherichia coli, ATCC28922, 24 h
P. aeruginosa ATCC27853 = test: as above; conditions: Pseudomonas aeruginosa; P. aeruginosa ATCC27853, compound alone, 24 h, 37 °C
Experimental: (§3) The bacterial strains used in the examples below are the reference strains P. aeruginosa ATCC27853, E. coli ATCC25922, K. pneumoniae ATCC51296, S. aureus ATCC25923 and E. faecalis ATCC29212. The bacterial strains were previously stored in 15% (v/v) glycerol at −80 °C for cryoprotection. One colony of the fresh culture of each strain was incubated in a culture tube containing 3 ml of Mueller-Hinton broth (MH2) at 37 °C overnight with agitation. This suspension was used for inoculum preparation.
(§4) The antibacterial activity of said polyaminated fatty acid compounds was measured using a standard microdilution test based on Clinical and Laboratory Standards Institute (CLSI) guidelines. This method was slightly modified by increasing the assay volumes to 200 μl so as to improve reproducibility.
(§5) A negative control which corresponds to 2 ml of sterile culture medium and a positive control which corresponds to a mixture of 1980 μl of culture medium and 20 μl of bacterial suspension from a thawed biological strain (biological strains are stored at −80 °C in glycerol) were prepared.
(§6) The tubes were incubated in an incubator shaker “Infors” at 37 °C for 24 hours at 100 round per minute (rpm).
(§7) The polyaminated fatty acid compounds to be tested were prepared in water at a concentration of 10 mM.
(§8) The required volume of the microbial suspension to be inoculated was calculated for an optical density (OD) measured corresponding to a value equal to 0.01 in each well by using a spectrophotometer at 600 nm. In the microplate, the first row corresponded to the negative control (200 μl of sterile culture medium in each well), the second row to the positive control (seeded culture medium), the third row was loaded twice with bacterial suspension and with 8 μl of a given polyaminated fatty acid compound in each well. Subsequently, a half-fold cascade dilution was performed from this line. The first column was used as an inhibition control. A sterile filter was then placed on the microplate allowing the passage of gases but not contaminants. The microplate was incubated at 37 °C in a humid atmosphere for 24 hours. After 24 hours of incubation, an optical density measurement was performed by taking 100 μl of the bacterial suspension diluted in 900 μl of sterile culture medium.
(§9) The medium used was Mueller-Hinton medium (MH) for bacteria. All tests were performed in duplicate.
(§10) Table 1 below reports the intrinsic antibacterial activity of some polymaminated fatty acids prepared in example 1 (MIC in μM) as well as their toxicity towards eucaryotic cells (IC50 in μM).

S. aureus ATCC25923 = test: as above; conditions: Staphylococcus aureus; S. aureus ATCC25923, compound alone, 24 h, 37 °C
Experimental: as §3, §4, §5, §6, §7, §8, §9, §10

[1] = tested on: Chinese hamster ovary cells (CHO-K1); test: Toxicity on mammalian cells, WST1 assay; conditions: Cricetulus griseus; CHO-K1 cell viability, WST1, 24 h
Experimental: The WST1 assay was used to measure the cytotoxic activity of the polyaminated fatty acid compounds. It is a colorimetric assay that measures viability and cell proliferation rate. It is based on the cleavage of colorless tetrazolium salts WST-1 (4-[3-(4-iodophenyl)-2-(4-nitrophenyl)-2H-5-tetrazolio]-1,3-benzene disulfonate) by mitochondrial dehydrogenases into yellow formazan derivative, quantifiable by spectrophotometry at 420-480 nm.
The WST1 assay was performed on Chinese hamster ovary cells. CHO-K1 cells (ATCC, USA) were maintained in culture in “Mac Coy's 5A” medium supplemented with 10% fetal calf serum, 2 mM L-glutamine and streptomycin penicillin mixture (100 U/ml: 10 μg/ml). Incubation is carried out at 37 °C under CO2 enriched atmosphere (5% by volume) and subcultured every two days.
Cells are transferred to 96-well plates (25,000 cells/ml) in complete “Mac Coy's 5A medium”, and maintained for 24 h at 37 °C under a humid CO2-enriched atmosphere (5% by volume). Increasing concentrations of given polyaminated fatty acid compounds are added to the wells in duplicate assays and 8 growth controls containing cells in medium alone are included in each assay run. After 24 hours at 37 °C (5% CO2), the culture medium is removed, the cells are rinsed in phosphate buffer (PBS) and 50 μL of PBS containing 10% WST1 reagent is added to each well. After 20 minutes of incubation at 37 °C, the results are read by spectrophotometry at 450 nm.
The results are expressed as dose-response relationships, modeled by a non-linear regression analysis using TableCurve software. The 50% Inhibitory Concentration (IC50) represents the concentration of polyaminated fatty acid compound capable of reducing cell viability by 50%.

[2] = MIC of antibiotic, PA263, +PAFA10 (10 μM)
[3] = MIC of antibiotic, PA263, +PAFA11 (10 μM)
[4] = MIC of antibiotic, PA263, +PAFA14 (10 μM)
[5] = MIC of antibiotic, PA01, +PAFA10 (10 μM)
[6] = MIC of antibiotic, PA01, +PAFA11 (10 μM)
[7] = MIC of antibiotic, PA01, +PAFA14 (10 μM)
[8] = MIC of antibiotic, AG-100, +PAFA10 (10 μM)
[9] = MIC of antibiotic, AG-100, +PAFA11 (10 μM)
[10] = MIC of antibiotic, AG-100, +PAFA14 (10 μM)
[11] = MIC of antibiotic, PA0509, +PAFA10 (10 μM), 24 h
[12] = MIC of antibiotic, PA0509, +PAFA11 (10 μM), 24 h
[13] = MIC of antibiotic, PA0509, +PAFA14 (10 μM), 24 h
[14] = MIC of antibiotic, +PAFA10 (10 μM)
[15] = MIC of antibiotic, +PAFA11 (10 μM)
[16] = MIC of antibiotic, +PAFA14 (10 μM)

Row | SMILES | fold reduction in MIC (MIC alone / MIC with PAFA) (P. aeruginosa PA263; PA263, +PAFA11 (10 μM)) | MIC (P. aeruginosa PA263; [2]) | MIC (P. aeruginosa PA263; [3]) | MIC (P. aeruginosa PA263; [4]) | MIC (P. aeruginosa PA263; PA263, Antibiotic alone) | MIC (P. aeruginosa PA01; [5]) | MIC (P. aeruginosa PA01; [6]) | MIC (P. aeruginosa PA01; [7]) | MIC (P. aeruginosa PA01; PA01, Antibiotic alone) | MIC (E. coli AG-100; AG-100, Antibiotic alone) | MIC (E. coli AG-100; [8]) | MIC (E. coli AG-100; [9]) | MIC (E. coli AG-100; [10]) | MIC (P. aeruginosa PA0509) | MIC (P. aeruginosa PA0509; [11]) | MIC (P. aeruginosa PA0509; [12]) | MIC (E. coli ATCC28922) | MIC (P. aeruginosa ATCC27853) | MIC (S. aureus ATCC25923) | IC50 [1] | further results
1 | CN(C)c1ccc(O)c2c1C[C@H]1C[C@H]3[C@H](N(C)C)C(O)=C(C(N)=O)C(=O)[C@@]3(O)C(O)=C1C2=O [MINO, minocycline] | 2 | 4 µg/mL | 8 µg/mL | 2 µg/mL | 16 µg/mL | 2 µg/mL | 4 µg/mL | 0.5 µg/mL | 16 µg/mL | 1 µg/mL | 0.13 µg/mL | 0.13 µg/mL | 0.004 µg/mL | 1 µg/mL | 0.5 µg/mL | 0.5 µg/mL | – | – | – | – | MIC (P. aeruginosa PA0509; [13]): 0.063 µg/mL; MIC (E. coli AG-100A; Antibiotic alone): 0.25 µg/mL; MIC (E. coli AG-100A; [14]): 0.25 µg/mL; MIC (E. coli AG-100A; [15]): 0.25 µg/mL; MIC (E. coli AG-100A; [16]): 0.004 µg/mL
2 | CN(C)[C@@H]1C(O)=C(C(N)=O)C(=O)[C@@]2(O)C(O)=C3C(=O)c4c(O)cccc4[C@@](C)(O)[C@H]3[C@H](O)[C@@H]12 [OXY, oxytetracycline] | 2 | 8 µg/mL | 16 µg/mL | 4 µg/mL | 32 µg/mL | 8 µg/mL | 8 µg/mL | 2 µg/mL | 32 µg/mL | 1 µg/mL | 1 µg/mL | 0.13 µg/mL | 0.008 µg/mL | 1 µg/mL | 0.25 µg/mL | 0.5 µg/mL | – | – | – | – | MIC (P. aeruginosa PA0509; [13]): 0.063 µg/mL; MIC (E. coli AG-100A; Antibiotic alone): 1 µg/mL; MIC (E. coli AG-100A; [14]): 1 µg/mL; MIC (E. coli AG-100A; [15]): 1 µg/mL; MIC (E. coli AG-100A; [16]): 0.008 µg/mL
3 | CCCCCCCC/C=C\CCCCCCCC(=O)NCCCNCCCCNCCCN [PAFA1] | – | – | – | – | – | – | – | – | – | – | – | – | – | – | – | – | > 200 µM | > 200 µM | > 200 µM | 152 µM | –
4 | CCCCCCCCCCCCCCCC(=O)NCCCNCCCN [PAFA3] | – | – | – | – | – | – | – | – | – | – | – | – | – | – | – | – | 200 µM (≈ 73.9 µg/mL) | > 200 µM | > 200 µM | 56 µM | –
5 | CCCCCCCCCCCCCCCC(=O)NCCCNCCCCNCCCN [PAFA4] | – | – | – | – | – | – | – | – | – | – | – | – | – | – | – | – | > 200 µM | > 200 µM | > 200 µM | 268 µM | –
6 | CCCCC/C=C\C/C=C\CCCCCCCC(=O)NCCCN [PAFA7] | – | – | – | – | – | – | – | – | – | – | – | – | – | – | – | – | 100 µM (≈ 33.7 µg/mL) | > 200 µM | 50 µM (≈ 16.8 µg/mL) | 168 µM | –
7 | CCCCC/C=C\C/C=C\CCCCCCCC(=O)NCCCNCCCNCCCN [PAFA13] | – | – | – | – | – | – | – | – | – | – | – | – | – | – | – | – | 100 µM (≈ 45.1 µg/mL) | 200 µM (≈ 90.2 µg/mL) | 50 µM (≈ 22.5 µg/mL) | 465 µM | –
8 | CN(C)[C@@H]1C(O)=C(C(N)=O)C(=O)[C@@]2(O)C(O)=C3C(=O)c4c(O)cccc4[C@@](C)(O)[C@H]3C[C@@H]12 [TET, tetracycline] | 2 | 8 µg/mL | 16 µg/mL | 4 µg/mL | 32 µg/mL | 8 µg/mL | 8 µg/mL | 2 µg/mL | 32 µg/mL | 1 µg/mL | 0.5 µg/mL | 0.25 µg/mL | 0.008 µg/mL | 1 µg/mL | 0.5 µg/mL | 0.25 µg/mL | – | – | – | – | MIC (P. aeruginosa PA0509; [13]): 0.125 µg/mL; MIC (E. coli AG-100A; Antibiotic alone): 1 µg/mL; MIC (E. coli AG-100A; [14]): 0.5 µg/mL; MIC (E. coli AG-100A; [15]): 0.5 µg/mL; MIC (E. coli AG-100A; [16]): 0.008 µg/mL
